Measured values from patent US20060069104A1, “Neurotrophic factor production accelerator” (priority 2002, published 2006).

Tested on: GDNF mRNA in cultured astroglia
Assay: Quantification of GDNF mRNA by RT-PCR in cultured astroglia
Assay type: cell-based, Wistar rat
Conditions: cultured rat astroglia
Procedure: Astroglia was prepared from the brain of a 1 to 2-day-old Wistar rat. It was inoculated to a 75 cm^2 culture flask, and incubated in Eagle's minimum essential medium supplemented with 10% fetal bovine serum for 10 to 14 days. Then, it was shaken overnight at 250 rpm, and microglia and oligodendroglia on the astroglia monolayer were removed. Astroglia was dispersed in 0.25% trypsin (1:400, Invitrogen), and inoculated to a 6-well plate. It was further incubated for 7 to 10 days, and confluent cells were used for the experiment.
The cultured astroglia prepared by the above-mentioned method was incubated in serum-free Eagle's minimum essential medium for 48 hours. The total RNA was prepared by AGPC (Acid Guanidinium-Phenol-Chloroform) method (Chomczynski P., and Sacchi N., Anal. Biochem. 162, 156-159 (1987)). […] The fluorescence intensity of the PCR product was imaged by Fluoro Imager (Molecular Dynamics), and fluorescence bands were quantified by NIH Image. The amount of the PCR product of the eurotrophic factor was standardized using the amount of the β-actin PCR product of cDNA, and the amount of relative mRNA was determined. The activity of N-(4-acetyl-1-piperazinyl)-p-fluorobenzamide monohydrate (hereinafter to be also referred to as a test drug.) on neurotrophic factor production was evaluated by a Tukey-Kramer assay. […]

In the case of `CC(=O)N1CCN(NC(=O)c2ccc(F)cc2)CC1.O` [test drug, N-(4-acetyl-1-piperazinyl)-p-fluorobenzamide monohydrate], the “amount of GDNF mRNA (relative mRNA amount standardized using the amount of the β-actin PCR product)” value (serum-free medium, from 3 hours after the treatment with the test drug, RT-PCR, Tukey-Kramer) was “significant increase” and the “time of peak of GDNF mRNA amount after treatment” value (time-course after treatment with the test drug (FIG. 1)) was 6 h.
